From patent publication US20250171437A1 (Agios Pharmaceuticals,Inc., priority 2022, published 2025) come the findings set out here.

The target of the first assay is T1, human PAH with the R408W mutation (A375 R408W cells) (Homo sapiens, UniProt P00439, R408W).
T1 construct: expressed in transfected cells
T1 sequence (P00439 1-452 R408W): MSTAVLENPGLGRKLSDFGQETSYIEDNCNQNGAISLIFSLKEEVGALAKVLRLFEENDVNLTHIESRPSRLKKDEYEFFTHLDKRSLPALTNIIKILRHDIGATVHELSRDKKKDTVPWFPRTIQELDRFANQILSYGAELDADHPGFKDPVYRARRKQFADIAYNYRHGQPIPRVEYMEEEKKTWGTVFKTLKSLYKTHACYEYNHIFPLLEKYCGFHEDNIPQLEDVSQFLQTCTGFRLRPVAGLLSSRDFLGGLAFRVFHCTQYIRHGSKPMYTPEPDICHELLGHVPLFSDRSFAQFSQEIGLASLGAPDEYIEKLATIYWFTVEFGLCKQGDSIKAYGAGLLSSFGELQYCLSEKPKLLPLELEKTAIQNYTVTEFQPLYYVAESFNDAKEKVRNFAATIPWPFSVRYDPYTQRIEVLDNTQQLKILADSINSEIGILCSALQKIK
Nature of the assay: Cell Based Phenylalanine Flux Assay. The conditions noted are these: A375 R408W cells; 24 hrs with compound, then 20 μM sepiapterin and 800 μM 13C9,15N-Phenylalanine for 4 hours; 13C-Tyrosine by LC-MS; average where tested multiple times. The gist of the method:
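A375 cells stably expressing lentiviral human PAH R408W were treated with compounds (10-point 2-fold dilutions, 0.5% DMSO, duplicate) for 24 h at 37 °C. Then 20 μM sepiapterin and 800 μM 13C9,15N-Phe were added for 4 h; media 13C-Tyr was measured by LC-MS to give AC50.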
For `Cc1cc(C(=O)N2CCc3[nH]cnc3[C@@H]2c2nc3ccccc3o2)n(C)n1` [Example 780, (R)-(4-(benzo[d]oxazol-2-yl)-6,7-dihydro-1H-imidazo[4,5-c]pyridin-5(4H)-yl)(1,3-dimethyl-1H-pyrazol-5-yl)methanone], the AC50 (in general, the concentration giving half of the maximal activity seen) fell in the range of 1000 to 5000 nM. Turning to `CC(C)(O)c1nc(C(F)F)c(C(=O)N2CCc3[nH]cnc3[C@H]2c2nc3cc(Cl)cc(F)c3o2)o1` [Example 605, (S)-(4-(5-chloro-7-fluorobenzo[d]oxazol-2-yl)-6,7-dihydro-1H-imidazo[4,5-c]pyridin-5(4H)-yl)(4-(difluoromethyl)-2-(2-hydroxypropan-2-yl)oxazol-5-yl)methanone], the AC50 is no more than 500 nM. Consider `Cn1cc(-c2nc(C(F)(F)F)c(C(=O)N3CCc4[nH]cnc4[C@@H]3c3nc4cccc(F)c4o3)o2)cn1` [Example 670, (R)-(4-(7-fluorobenzo[d]oxazol-2-yl)-6,7-dihydro-1H-imidazo[4,5-c]pyridin-5(4H)-yl)(2-(1-methyl-1H-pyrazol-4-yl)-4-(trifluoromethyl)oxazol-5-yl)methanone], for which the AC50 is no more than 500 nM. As for `COc1ccc2oc([C@@H]3c4nc[nH]c4CCN3C(=O)c3nnc(-c4ccccn4)o3)nc2c1` [Example 555, (S)-(4-(5-methoxybenzo[d]oxazol-2-yl)-6,7-dihydro-1H-imidazo[4,5-c]pyridin-5(4H)-yl)(5-(pyridin-2-yl)-1,3,4-oxadiazol-2-yl)methanone], the half-maximal activity concentration (AC50) was 500 to 1000 nM. Same read-out and setting: then `O=C(c1ocnc1C(F)F)N1CCc2[nH]cnc2[C@@H]1c1nc2cc(F)ccc2o1` [Example 52, (R)-(4-(difluoromethyl)oxazol-5-yl)(4-(5-fluorobenzo[d]oxazol-2-yl)-6,7-dihydro-1H-imidazo[4,5-c]pyridin-5(4H)-yl)methanone], with 500 to 1000 nM; and `Cc1cccc2oc([C@@H]3c4nc[nH]c4CCN3C(=O)c3ocnc3C(F)F)nc12` [Example 382, (S)-(4-(difluoromethyl)oxazol-5-yl)(4-(4-methylbenzo[d]oxazol-2-yl)-6,7-dihydro-1H-imidazo[4,5-c]pyridin-5(4H)-yl)methanone], with no more than 500 nM; and `Cc1ccc2oc([C@H]3c4nc[nH]c4CCN3C(=O)c3oc(C(C)(C)O)nc3C(F)F)nc2c1` [Example 312, (R)-(4-(difluoromethyl)-2-(2-hydroxypropan-2-yl)oxazol-5-yl)(4-(5-methylbenzo[d]oxazol-2-yl)-6,7-dihydro-1H-imidazo[4,5-c]pyridin-5(4H)-yl)methanone], with 500 to 1000 nM. On the same count and under the same terms, then `CC(C)(O)c1nc(C(F)F)c(C(=O)N2CCc3[nH]cnc3[C@H]2c2nc3cccc(Cl)c3o2)o1` [Example 423, (S)-(4-(7-chlorobenzo[d]oxazol-2-yl)-6,7-dihydro-1H-imidazo[4,5-c]pyridin-5(4H)-yl)(4-(difluoromethyl)-2-(2-hydroxypropan-2-yl)oxazol-5-yl)methanone], with no more than 500 nM; and `CC(C)(O)c1nc(C(F)F)c(C(=O)N2CCc3[nH]cnc3[C@H]2c2nc3cc(Br)ccc3o2)o1` [Example 415, [(4S)-4-(5-bromo-1,3-benzoxazol-2-yl)-1,4,6,7-tetrahydroimidazo[4,5-c]pyridin-5-yl]-[4-(difluoromethyl)-2-(1-hydroxy-1-methyl-ethyl)oxazol-5-yl]methanone], with 500 to 1000 nM; and `CC(F)(F)c1ncoc1C(=O)N1CCc2[nH]cnc2[C@@H]1c1nc2ccc(F)cc2o1` [Example 650, (R)-(4-(1,1-difluoroethyl)oxazol-5-yl)(4-(6-fluorobenzo[d]oxazol-2-yl)-6,7-dihydro-1H-imidazo[4,5-c]pyridin-5(4H)-yl)methanone], with 500 to 1000 nM. With `Cc1cccc2nc([C@@H]3c4nc[nH]c4CCN3C(=O)c3nnc(-c4ncccc4F)o3)oc12` [Example 858, (S)-(5-(3-fluoropyridin-2-yl)-1,3,4-oxadiazol-2-yl)(4-(7-methylbenzo[d]oxazol-2-yl)-6,7-dihydro-1H-imidazo[4,5-c]pyridin-5(4H)-yl)methanone], the AC50 was no more than 500 nM.

In the case of `COc1ccc2oc([C@@H]3c4nc[nH]c4CCN3C(=O)c3ocnc3C(F)F)nc2c1` [Example 341, (S)-(4-(difluoromethyl)oxazol-5-yl)(4-(5-methoxybenzo[d]oxazol-2-yl)-6,7-dihydro-1H-imidazo[4,5-c]pyridin-5(4H)-yl)methanone], the AC50 is no more than 500 nM.

Turning to `Cc1ccc(F)c2nc([C@@H]3c4nc[nH]c4CCN3C(=O)c3ocnc3C(F)F)oc12` [Example 743, (S)-(4-(difluoromethyl)oxazol-5-yl)(4-(4-fluoro-7-methylbenzo[d]oxazol-2-yl)-6,7-dihydro-1H-imidazo[4,5-c]pyridin-5(4H)-yl)methanone], the AC50 was no more than 500 nM. In the case of `O=C(c1ccnn1C(F)(F)F)N1CCc2[nH]cnc2[C@H]1c1nc2ccc(F)cc2o1` [Example 287, (S)-(4-(6-fluorobenzo[d]oxazol-2-yl)-6,7-dihydro-1H-imidazo[4,5-c]pyridin-5(4H)-yl)(1-(trifluoromethyl)-1H-pyrazol-5-yl)methanone], the AC50 lay within 500 to 1000 nM.

`Cn1nc(Cl)nc1C(=O)N1CCc2[nH]cnc2[C@H]1c1nc2cccc(F)c2o1` [Example 283, (S)-(3-chloro-1-methyl-1H-1,2,4-triazol-5-yl)(4-(7-fluorobenzo[d]oxazol-2-yl)-6,7-dihydro-1H-imidazo[4,5-c]pyridin-5(4H)-yl)methanone]: the AC50 was no more than 500 nM. Same read-out and setting: then `Cc1ccc2oc([C@H]3c4nc[nH]c4CCN3C(=O)c3oc(-c4ccccn4)nc3C(F)F)nc2c1` [Example 738, (R)-(4-(difluoromethyl)-2-(pyridin-2-yl)oxazol-5-yl)(4-(5-methylbenzo[d]oxazol-2-yl)-6,7-dihydro-1H-imidazo[4,5-c]pyridin-5(4H)-yl)methanone], with 1000 to 5000 nM; and `COc1cc(F)cc2nc([C@@H]3c4nc[nH]c4CCN3C(=O)c3oc(C(C)(C)O)nc3C(F)F)oc12` [Example 715, (S)-(4-(difluoromethyl)-2-(2-hydroxypropan-2-yl)oxazol-5-yl)(4-(5-fluoro-7-methoxybenzo[d]oxazol-2-yl)-6,7-dihydro-1H-imidazo[4,5-c]pyridin-5(4H)-yl)methanone], with no more than 500 nM. The same measure, in the same setting: then `Cn1cc(-c2nnc(C(=O)N3CCc4[nH]cnc4[C@@H]3c3nc4cc(F)cc(F)c4o3)o2)cn1` [Example 666, (R)-(4-(5,7-difluorobenzo[d]oxazol-2-yl)-6,7-dihydro-1H-imidazo[4,5-c]pyridin-5(4H)-yl)(5-(1-methyl-1H-pyrazol-4-yl)-1,3,4-oxadiazol-2-yl)methanone], with no more than 500 nM; and `Cc1cccc2nc([C@H]3c4nc[nH]c4CCN3C(=O)c3nnc(-c4cnn(C(F)F)c4)o3)oc12` [Example 871, (R)-(5-(1-(difluoromethyl)-1H-pyrazol-4-yl)-1,3,4-oxadiazol-2-yl)(4-(7-methylbenzo[d]oxazol-2-yl)-6,7-dihydro-1H-imidazo[4,5-c]pyridin-5(4H)-yl)methanone], with 1000 to 5000 nM; and `O=C([C@@H]1CC1(F)F)N1CCc2[nH]cnc2[C@H]1c1nc2cc(F)ccc2o1` [Example 61, ((S)-2,2-difluorocyclopropyl)((S)-4-(5-fluorobenzo[d]oxazol-2-yl)-6,7-dihydro-1H-imidazo[4,5-c]pyridin-5(4H)-yl)methanone], with 500 to 1000 nM. Still for that read-out and setting: then `COc1cccc2oc([C@@H]3c4nc[nH]c4CCN3C(=O)c3nnc(-c4ccn(C)n4)o3)nc12` [Example 639, (S)-(4-(4-methoxybenzo[d]oxazol-2-yl)-6,7-dihydro-1H-imidazo[4,5-c]pyridin-5(4H)-yl)(5-(1-methyl-1H-pyrazol-3-yl)-1,3,4-oxadiazol-2-yl)methanone], with no more than 500 nM; and `Cc1ncoc1C(=O)N1CCc2[nH]cnc2[C@H]1c1nc2ccccc2o1` [Example 793, (S)-(4-(benzo[d]oxazol-2-yl)-6,7-dihydro-1H-imidazo[4,5-c]pyridin-5(4H)-yl)(4-methyloxazol-5-yl)methanone], with no more than 500 nM; and `C[C@@H](O)c1nc(C(F)F)c(C(=O)N2CCc3[nH]cnc3[C@@H]2c2nc3cc(F)ccc3o2)o1` [Example 152, (4-(difluoromethyl)-2-((R)-1-hydroxyethyl)oxazol-5-yl)((R)-4-(5-fluorobenzo[d]oxazol-2-yl)-6,7-dihydro-1H-imidazo[4,5-c]pyridin-5(4H)-yl)methanone], with 1000 to 5000 nM.

Staying with this assay, now noted: A375 cells expressing R408W PAH; 24 hrs with compound, then 20 μM sepiapterin and 800 μM 13C9,15N-Phenylalanine for 4 hours; 13C-Tyrosine by LC-MS; average where tested multiple times.
With `Cc1nc(C(C)(C)O)oc1C(=O)N1CCc2[nH]cnc2C1c1nc2cc(F)ccc2o1` (centres unmarked), the AC50 lay within 1000 to 5000 nM.

Regarding `Cc1nc(C(=O)N2CCc3[nH]cnc3C2c2nc3ccccc3o2)n(C)n1` (centres unmarked), the AC50 is 1000 to 5000 nM. As for `Cn1ncc(C(=O)N2CCc3[nH]cnc3C2c2nc3cc(F)ccc3o2)c1C(F)F` (centres unmarked), the AC50 fell in the range of 1000 to 5000 nM. The same measure, in the same setting: then `O=C(c1cnn2cc(N3CCN(CC(F)(F)F)CC3)ccc12)N1CCc2[nH]cnc2C1c1nc2cc(F)ccc2o1` (centres unmarked), with no less than 5000 nM.

Consider `O=C(c1cncs1)N1CCc2[nH]cnc2C1c1nc2cc(F)ccc2o1` (centres unmarked), for which the AC50 was in the range of 1000 to 5000 nM. Still for that read-out and setting: then `O=C(Cc1cnn2ccccc12)N1CCc2[nH]cnc2C1c1nc2cc(F)ccc2o1` (centres unmarked), with 1000 to 5000 nM.
